Measured values taken from patent publication US20230159445A1, “STAT INHIBITORY COMPOUNDS AND COMPOSITIONS” (JANPIX LIMITED, priority 2020, published 2023).

Tests used:
[1] = test system: glutathione (GSH); test: Reactivity Profiling with Glutathione (GSH), half-life by HPLC; settings: 5 mM glutathione (GSH) in IMDM with 10% FBS
Description: 3.5 μL of 5 mM stocking solution of the inhibitors in DMSO was added to 697.5 μL of Iscove's Modified Dulbecco's Medium (IMDM) supplemented with 10% FBS and antibiotic antimycotic solution, with 5 mM glutathione to afford a final concentration of 25 μM inhibitor with 0.5% DMSO. The solution was then immediately placed in the sample tray at 25° C. […] For each inhibitor, its peak is integrated at different time points and compared to the time zero injection in order to obtain a percentage remaining. Half-life is calculated according to a first order reaction kinetic taking into account those time points for which remaining percentage of inhibitor is above 40%, using the formula: t½=Ln(2)/k, where k is the slope of the linear plot of Ln[Inhibitor] vs time, according to the formula: Ln[A]=Ln[A]0−kt, where [A] is the value resulting from the integration at each time point, [A]0 the value at time zero, and t the time. For each inhibitor, both replicates are averaged and the resulting t½ reported.

[2] = test system: MV4-11 cells; test: MV4-11 Cell Cytotoxicity Assay (CellTiter-Blue, 72 h); type: cell-based, human; settings: Homo sapiens, MV4-11; MV-4-11 cells
In short: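 Cells seeded 24 h before treatment, then exposed 72 h at 37° C, 5% CO2 to inhibitors in triplicate, top concentration 50 μM with 1:2 serial dilutions (0.5% DMSO vehicle). Viability read by CellTiter-Blue fluorescence at 560/590 nm after 1 h.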

[3] = test system: normal human fibroblast (NHF) cells; test: NHF Cell Cytotoxicity Assay (CellTiter-Blue, 72 h), off-target effects; type: cell-based; settings: Homo sapiens, Fibroblast; pooled NHF cells
Description: In some embodiments, the off-target effects of the compounds are evaluated in healthy human cells, such as in a normal human fibroblast (NHF) cell cytotoxicity assay.
Cell viability was examined following treatment at various concentrations of inhibitor (0.097656-50 μM) using a cell Titer-Blue cell viability assay. 1×10^4 normal human fibroblast cells per well were plated in 96-well assay plates in culture medium. All cells are grown in DMEM, IMDM and RPMI-1640 were supplemented with 10% FBS. After 24 hours, test compounds and vehicle controls are added to appropriate wells so the final volume was 100 μl in each well. The cells are cultured for the desired test exposure period (72 hours) at 37° C. and 5% CO2. The assay plates are removed from 37° C. incubator and 20 μL/well of CellTiter-Blue® Reagent is added. The plates are incubated using standard cell culture conditions for 1-4 hours and the plates are shaken for 10 seconds and record fluorescence at 560/590nm. For each sample well, value is normalized between the DMSO control and the highest concentration in case of plateau, and converted into a percentage. In the absence of plateau, minimum lecture is obtained from a different sample within the same experiment. For each concentration, the four replicates are averaged and standard deviation calculated. Data is fitted to a log(inhibitor) vs response curve with variable slope model using Microsoft Excel, obtaining IC50 and Hill slope variables.
A person skilled in the art would appreciate that a higher IC50 value in this NHF assay can indicate lower off-target effects.

How did the half-life at 25 μM [1] turn out when `O=C(O)c1ccc(N(Cc2cccc(-n3cccc3)c2)C(=O)CN(Cc2cnccc2C(F)(F)F)S(=O)(=O)c2c(F)c(F)c(F)c(F)c2F)c(OC2CC2)c1` [Compound 1161, 4-(N-(3-(1H-pyrrol-1-yl)benzyl)-2-(N-((4-(trifluoromethyl)pyridin-3-yl)methyl)-(2,3,4,5,6-pentafluoro-phenyl)sulfonamido)acetamido)-3-cyclopropoxybenzoic acid] was run?
Its half-life at 25 μM is 0.00167 to 2.37 h.

What about the IC50 [2] of the same molecule?
The IC50 was 316 to 1000 nM.

With `O=C(O)c1ccc(N(Cc2cc(C3CC3)cc(C3CC3)c2)C(=O)CN(Cc2cnccc2C(F)(F)F)S(=O)(=O)c2c(F)c(F)c(F)c(F)c2F)c(OC2CC2)c1` [Compound 1163, 3-cyclopropoxy-4-(N-(3,5-dicyclopropylbenzyl)-2-(N-((4-(trifluoromethyl)pyridin-3-yl)methyl)-(2,3,4,5,6-pentafluoro-phenyl)sulfonamido)acetamido)benzoic acid] as the molecule, how does the half-life at 25 μM [1] read?
Its half-life at 25 μM is 2.37 to 4.12 h.

What about the IC50 [2] of the same molecule?
The IC50 was 0.01 to 316 nM.

For `COc1cc(C(=O)O)ccc1N(Cc1cc(C2CC2)cc(N2CCCC2)c1)C(=O)CN(Cc1cnccc1C(F)(F)F)S(=O)(=O)c1c(F)c(F)c(F)c(F)c1F` [Compound 1165, 4-(N-(3-cyclopropyl-5-(pyrrolidin-1-yl)benzyl)-2-(N-((4-(trifluoromethyl)pyridin-3-yl)methyl)-(2,3,4,5,6-pentafluoro-phenyl)sulfonamido)acetamido)-3-methoxybenzoic acid], which half-life at 25 μM [1] is on record?
Its half-life at 25 μM is 0.00167 to 2.37 h.

And the IC50 [2]?
The IC50 was 316 to 1000 nM.

What does the source list for `COc1cc(C(=O)O)ccc1N(Cc1cc(C2CC2)cc(C(C)(C)C)c1)C(=O)CN(Cc1ncc(F)cc1Cl)S(=O)(=O)c1c(F)c(F)c(F)c(F)c1F` [Compound 1179, 4-(N-(3-(tert-butyl)-5-cyclopropylbenzyl)-2-(N-((3-chloro-5-fluoropyridin-2-yl)methyl)-(2,3,4,5,6-pentafluorophenyl)sulfon-amido)acetamido)-3-methoxybenzoic acid]?
half-life at 25 μM [1]: 2.37 to 4.12 h; IC50 [2]: 0.01 to 316 nM

How did the half-life at 25 μM [1] turn out when `COc1cc(C(=O)O)ccc1N(Cc1cc(C2CC2)cc(C(C)(C)C)c1)C(=O)CN(Cc1ccc(F)cc1C#N)S(=O)(=O)c1c(F)c(F)c(F)c(F)c1F` [Compound 1180, 4-(N-(3-(tert-butyl)-5-cyclopropylbenzyl)-2-(N-(2-cyano-4-fluorobenzyl)-(2,3,4,5,6-pentafluorophenyl)sulfon-amido)acetamido)-3-methoxybenzoic acid] was run?
The half-life at 25 μM was 2.37 to 4.12 h.

What about the IC50 [2] of the same molecule?
Its IC50 is 0.01 to 316 nM.

For `Cc1cc(C(=O)O)cc(C)c1N(Cc1cc(C2CC2)cc(C2CC2)c1)C(=O)CN(Cc1ccc(F)cc1Cl)S(=O)(=O)c1c(F)c(F)c(F)c(F)c1F` [Compound 1188, 4-(2-(N-(2-chloro-4-fluorobenzyl)-(2,3,4,5,6-pentafluorophenyl)sulfon-amido)-N-(3,5-dicyclopropylbenzyl)acetamido)-3,5-dimethylbenzoic acid], which IC50 [3] is on record?
Its IC50 is 1 to 10000 nM.

And the IC50 [2]?
The IC50 was 316 to 1000 nM.

What does the source list for `Cc1cc(C(=O)O)cc(C)c1N(Cc1cc(C2CC2)cc(C(C)(C)C)c1)C(=O)CN(Cc1c(F)c(F)c(F)c(F)c1F)S(=O)(=O)c1c(F)c(F)c(F)c(F)c1F` [Compound 1201, 4-(N-(3-(tert-butyl)-5-cyclopropylbenzyl)-2-(N-((perfluorophenyl)methyl)-(2,3,4,5,6-pentafluorophenyl)sulfonamido)acetamido)-3,5-dimethylbenzoic acid]?
half-life at 25 μM [1]: 9.23 to 1670 h; IC50 [2]: 316 to 1000 nM

With `CC(C)(C)c1cc(CN(C(=O)CN(Cc2ccccc2C#N)S(=O)(=O)c2c(F)c(F)c(F)c(F)c2F)c2ccc(C(=O)O)cc2OC2CC2)cc(C2CC2)c1` [Compound 1224, 4-(N-(3-(tert-butyl)-5-cyclopropylbenzyl)-2-(N-(2-cyanobenzyl)-(2,3,4,5,6-pentafluorophenyl)sulfon-amido)acetamido)-3-cyclopropoxybenzoic acid] as the molecule, how does the IC50 [3] read?
The IC50 was 1 to 10000 nM.

What does the source list for `O=C(O)c1ccc(N(Cc2cc(C3CC3)cc(C3CC3)c2)C(=O)CN(Cc2ccc(F)cc2Cl)S(=O)(=O)c2ccc(F)nc2)c(OC2CC2)c1` [Compound 1225, 4-(2-(N-(2-chloro-4-fluorobenzyl)-(6-fluoropyridine)-3-sulfonamido)-N-(3,5-dicyclopropylbenzyl)acetamido)-3-cyclopropoxybenzoic acid]?
half-life at 25 μM [1]: 9.23 to 1670 h; IC50 [2]: 3160 to 100000 nM

What does the source list for `COc1ccccc1CN(CC(=O)N(Cc1cc(C2CC2)cc(C(C)(C)C)c1)c1ccc(C(=O)O)cc1OC1CC1)S(=O)(=O)c1c(F)c(F)c(F)c(F)c1F` [Compound 1234, 4-(N-(3-(tert-butyl)-5-cyclopropylbenzyl)-2-(N-(2-methoxybenzyl)-(2,3,4,5,6-pentafluoro-phenyl)sulfonamido)acetamido)-3-cyclopropoxybenzoic acid]?
half-life at 25 μM [1]: 4.12 to 9.23 h; IC50 [2]: 316 to 1000 nM

Which results are given for `CC(C)(C)c1cc(CN(C(=O)CN(Cc2ccccc2OC(F)(F)F)S(=O)(=O)c2c(F)c(F)c(F)c(F)c2F)c2ccc(C(=O)O)cc2OC2CC2)cc(C2CC2)c1` [Compound 1235, 4-(N-(3-(tert-butyl)-5-cyclopropylbenzyl)-2-(N-(2-(trifluoromethoxy)benzyl)-(2,3,4,5,6-pentafluoro-phenyl)sulfonamido)acetamido)-3-cyclopropoxybenzoic acid]?
half-life at 25 μM [1]: 9.23 to 1670 h; IC50 [2]: 316 to 1000 nM

With `CN(C)c1ccccc1CN(CC(=O)N(Cc1cc(C2CC2)cc(C(C)(C)C)c1)c1ccc(C(=O)O)cc1OC1CC1)S(=O)(=O)c1c(F)c(F)c(F)c(F)c1F` [Compound 1236, 4-(N-(3-(tert-butyl)-5-cyclopropylbenzyl)-2-(N-(2-(dimethylamino)benzyl)-(2,3,4,5,6-pentafluorophenyl)sulfon-amido)acetamido)-3-cyclopropoxybenzoic acid] as the molecule, how does the half-life at 25 μM [1] read?
Its half-life at 25 μM is 9.23 to 1670 h.

And the IC50 [2]?
Its IC50 is 316 to 1000 nM.

What does the source list for `CC(C)(C)c1cc(CN(C(=O)CN(Cc2ccccc2N2CCCC2)S(=O)(=O)c2c(F)c(F)c(F)c(F)c2F)c2ccc(C(=O)O)cc2OC2CC2)cc(C2CC2)c1` [Compound 1237, 4-(N-(3-(tert-butyl)-5-cyclopropylbenzyl)-2-(N-(2-(pyrrolidin-1-yl)benzyl)-(2,3,4,5,6-pentafluoro-phenyl)sulfonamido)acetamido)-3-cyclopropoxybenzoic acid]?
half-life at 25 μM [1]: 9.23 to 1670 h; IC50 [2]: 316 to 1000 nM

With `CCc1cc(C(=O)O)ccc1N(Cc1cc(C2CC2)cc(C2CC2)c1)C(=O)CN(Cc1ccc(F)cc1Cl)S(=O)(=O)c1c(F)c(F)c(F)c(F)c1F` [Compound 1243, 4-(2-(N-(2-chloro-4-fluorobenzyl)-(2,3,4,5,6-pentafluorophenyl)sulfon-amido)-N-(3,5-dicyclopropylbenzyl)acetamido)-3-ethylbenzoic acid] as the molecule, how does the IC50 [3] read?
Its IC50 is 10000 to 20000 nM.

For `CC(C)c1cc(C(=O)O)ccc1N(Cc1cc(C2CC2)cc(C2CC2)c1)C(=O)CN(Cc1ccc(F)cc1Cl)S(=O)(=O)c1c(F)c(F)c(F)c(F)c1F` [Compound 1244, 4-(2-(N-(2-chloro-4-fluorobenzyl)-(2,3,4,5,6-pentafluorophenyl)sulfon-amido)-N-(3,5-dicyclopropylbenzyl)acetamido)-3-isopropylbenzoic acid], which IC50 [3] is on record?
Its IC50 is 10000 to 20000 nM.

With `O=C(O)c1ccc(N(Cc2cc(C3CC3)cc(C3CC3)c2)C(=O)CN(Cc2ccc(F)cc2Cl)S(=O)(=O)c2c(F)c(F)c(F)c(F)c2F)c(OC2CCSC2)c1` (stereo not shown) [Compound 1264, 4-(2-(N-(2-chloro-4-fluorobenzyl)-(2,3,4,5,6-pentafluorophenyl)sulfon-amido)-N-(3,5-dicyclopropylbenzyl)acetamido)-3-((tetrahydrothiophen-3-yl)oxy)benzoic acid] as the molecule, how does the IC50 [3] read?
The IC50 was 10000 to 20000 nM.
